In patent US20160168540A1, “COMPOSITION FOR MAINTAINING PLATELET FUNCTION” (KYOTO UNIVERSITY, priority 2013, published 2016):

Target: T1, TACE (ADAM17) (Homo sapiens, UniProt P78536)
T1 construct: made in house; host or cells: mammalian cells or insect cells
Experiment: TACE (ADAM17) inhibition test
Assay type: biochemical
Settings: fluorescent synthetic substrate, 37° C. for 1.5 hours; read-out: TACE IC50
Text: The nucleotide sequence of TACE has been reported by Moss et al. (Moss, M. L. et al., Nature 1997, vol. 385, pp. 733-736). Based on this information, the cDNA of TACE was obtained according to the prescribed method from THP-1 cells or the like, and then incorporated the cDNA into an expression vector. Next, this vector was transformed into mammalian cells or insect cells, and TACE protein was expressed. The TACE protein was isolated, and used as an enzyme. Further, a fluorescent synthetic substrate Nma(N-methylanthranilic acid)-Leu-Ala-Gln-Ala-Val-Arg-Ser-Ser-Lys(Dnp(dinitrophenyl))-D-Arg-NH2 including the TACE-cleaved sequence of a membrane-bound TNF was used as a substrate. The enzyme reaction was carried out by adding 1.8 μL of a solution of the test substance to 90 μL of a fluorescent synthetic substrate prepared with an assay buffer B (50 mM tris-hydrochloric acid buffer (pH 7.5) including 200 mM sodium chloride, 5 mM calcium chloride, 10 μM zinc sulfate, and 0.05% PLURONIC F-68), then mixing 90 μL of a TACE enzyme solution prepared with an assay buffer A (50 mM tris-hydrochloric acid buffer (pH 7.5) including 200 mM sodium chloride, 5 mM calcium chloride, 10 μM zinc sulfate, and 2 mg/mL bovine serum albumin) and reacting at 37° C. for 1.5 hours. Enzyme activity was then determined by measuring with a fluorescence intensity meter (Labsystems, Fluoroskan Ascent) at an excitation wavelength of 355 nm and a measurement wavelength of 460 nm. The 50% inhibitory concentration (IC50) of the test substances was calculated by comparing enzyme activity in the presence and the absence of the test substance to determine the inhibition rate. Further, test substances having an IC50 strength of less than 100 nM were evaluated as “A”, and test substances having an IC50 strength of 100 nM or more were evaluated as “B”.

T1 sequence (P78536 215-824): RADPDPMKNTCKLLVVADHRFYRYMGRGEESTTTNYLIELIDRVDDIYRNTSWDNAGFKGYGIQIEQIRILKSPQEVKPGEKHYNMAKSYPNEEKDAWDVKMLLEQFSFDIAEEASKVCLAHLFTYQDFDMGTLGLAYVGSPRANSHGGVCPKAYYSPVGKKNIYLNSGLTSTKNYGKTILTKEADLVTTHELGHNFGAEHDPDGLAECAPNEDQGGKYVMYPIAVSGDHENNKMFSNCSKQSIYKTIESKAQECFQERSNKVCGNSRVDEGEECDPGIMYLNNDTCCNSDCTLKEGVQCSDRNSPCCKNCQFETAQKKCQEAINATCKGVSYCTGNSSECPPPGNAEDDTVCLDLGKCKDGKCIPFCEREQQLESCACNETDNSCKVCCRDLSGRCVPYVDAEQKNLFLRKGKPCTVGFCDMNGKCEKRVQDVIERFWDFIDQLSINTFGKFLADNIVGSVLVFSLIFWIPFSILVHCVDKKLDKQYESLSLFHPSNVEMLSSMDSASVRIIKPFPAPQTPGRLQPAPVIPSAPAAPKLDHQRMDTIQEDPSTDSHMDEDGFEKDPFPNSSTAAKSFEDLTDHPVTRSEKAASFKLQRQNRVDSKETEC

Cc1noc(C)c1-c1ccc(C2(Cn3cccc(C)c3=O)NC(=O)NC2=O)cc1 (racemic) [Compound I-90] was tested, and the IC50 was < 100 nM.
With Cc1cccn(CC2(c3ccc(CC(C)C)cc3)NC(=O)NC2=O)c1=O (racemic) [Compound I-121] the IC50 was < 100 nM.
Cc1cccn(CC2(c3cccc(Br)c3)NC(=O)NC2=O)c1=O (racemic) [Compound I-57] was tested, and the IC50 was < 100 nM.
With COc1ccc(OC)c(C2(Cn3cccc(C)c3=O)NC(=O)NC2=O)c1 (racemic) [Compound I-20, 5-(2,5-dimethoxyphenyl)-5-[(3-methyl-2-oxopyridin-1(2H)-yl)methyl]imidazolidine-2,4-dione] the IC50 was < 100 nM.
Cc1cccn(CC2(c3ccc(Cc4ccccc4)cc3)NC(=O)NC2=O)c1=O (racemic) [Compound I-40, 5-(4-benzylphenyl)-5-[(3-methyl-2-oxopyridin-1(2H)-yl)methyl]imidazolidine-2,4-dione] was tested, and the IC50 was < 100 nM.
With O=C1NC(=O)C(Cn2cccc(CO)c2=O)(c2ccc(F)c(F)c2)N1 (racemic) [Compound I-148] the IC50 was ≥ 100 nM.
In the case of Cc1cccn(CC2(c3cccc(C#CCN(C)C)c3)NC(=O)NC2=O)c1=O (racemic) [Compound I-71], the IC50 is reported as < 100 nM.
Cc1cccn(CC2(c3ccc(Oc4ccc(F)cc4)c(F)c3)NC(=O)NC2=O)c1=O (racemic) [Compound I-111] was tested, and the IC50 was < 100 nM.
With CCCc1ccc(C2(Cn3cccc(C)c3=O)NC(=O)NC2=O)cc1 (racemic) [Compound I-45, 5-[(3-methyl-2-oxopyridin-1(2H)-yl)methyl]-5-(4-propylphenyl)imidazolidine-2,4-dione] the IC50 was < 100 nM.
Cc1cc(C2(Cn3cccc(C)c3=O)NC(=O)NC2=O)ccc1F (racemic) [Compound I-30, 5-(4-fluoro-3-methylphenyl)-5-[(3-methyl-2-oxopyridin-1(2H)-yl)methyl]imidazolidine-2,4-dione] was tested, and the IC50 was < 100 nM.
In the case of COc1ccc(F)cc1C1(Cn2cccc(C)c2=O)NC(=O)NC1=O (racemic) [Compound I-69], the IC50 is reported as < 100 nM.
With Cc1cccn(CC2(c3ccc4c(c3)OCCCO4)NC(=O)NC2=O)c1=O (racemic) [Compound I-105] the IC50 was < 100 nM.
For COCOc1ccc(C2(Cn3cccc(C)c3=O)NC(=O)NC2=O)cc1 (racemic) [Compound I-13, 5-[4-(methoxymethoxy)phenyl]-5-[(3-methyl-2-oxopyridin-1(2H)-yl)methyl]imidazolidine-2,4-dione], the IC50 was < 100 nM.
With Cc1cccn(CC2(c3ccc(Oc4cccnc4)cc3)NC(=O)NC2=O)c1=O (racemic) [Compound I-101] the IC50 was < 100 nM.
In the case of COc1ccc(Oc2ccc(C3(Cn4cccc(C)c4=O)NC(=O)NC3=O)cc2)cc1 (racemic) [Compound I-81], the IC50 is reported as < 100 nM.
O=C1NC(=O)C(Cn2cccc(F)c2=O)(c2ccc(-c3ccccc3)cc2)N1 (racemic) [Compound I-49, 5-([1,1′-biphenyl]-4-yl)-5-[(3-fluoro-2-oxopyridin-1(2H)-yl)methyl]imidazolidine-2,4-dione] was tested, and the IC50 was < 100 nM.
For O=C1NC(=O)C(Cn2cccc(Br)c2=O)(c2ccc(Cc3ccccc3)cc2)N1 (racemic) [Compound I-149], the IC50 was < 100 nM.
With Cc1cccn(CC2(c3cccc(C#CC(C)(C)C)c3)NC(=O)NC2=O)c1=O (racemic) [Compound I-63] the IC50 was ≥ 100 nM.
Cc1cccn(CC2(c3ccc(S(C)(=O)=O)cc3)NC(=O)NC2=O)c1=O (racemic) [Compound I-25, 5-[(3-methyl-2-oxopyridin-1(2H)-yl)methyl]-5-[4-(methylsulfonyl)phenyl]imidazolidine-2,4-dione] was tested, and the IC50 was < 100 nM.
In the case of COc1cc(C2(Cn3cccc(C)c3=O)NC(=O)NC2=O)cc(F)c1F (racemic) [Compound I-127], the IC50 is reported as < 100 nM.
For Cc1cccn(CC2(c3ccc(-c4ccc(F)cc4)cc3)NC(=O)NC2=O)c1=O (racemic) [Compound I-75], the IC50 was < 100 nM.
In the case of Cc1cccn(CC2(c3ccc(Oc4ccccc4)c(F)c3)NC(=O)NC2=O)c1=O (racemic) [Compound I-87], the IC50 is reported as < 100 nM.
With Cc1cccn(CC2(c3cc(F)ccc3F)NC(=O)NC2=O)c1=O (racemic) [Compound I-154] the IC50 was < 100 nM.
In the case of COc1cccc(C2(Cn3cccc(C)c3=O)NC(=O)NC2=O)c1 (racemic) [Compound I-4, 5-(3-methoxyphenyl)-5-[(3-methyl-2-oxopyridin-1(2H)-yl)methyl]imidazolidine-2,4-dione], the IC50 is reported as < 100 nM.
Cc1cccn(CC2(c3ccc4occc4c3)NC(=O)NC2=O)c1=O (racemic) [Compound I-22, 5-(benzofuran-5-yl)-5-[(3-methyl-2-oxopyridin-1(2H)-yl)methyl]imidazolidine-2,4-dione] was tested, and the IC50 was < 100 nM.
For COc1ccccc1Oc1ccc(C2(Cn3cccc(C)c3=O)NC(=O)NC2=O)cc1 (racemic) [Compound I-113], the IC50 was < 100 nM.
In the case of Cc1cccn(CC2(c3ccc(OCc4ccccc4)cc3)NC(=O)NC2=O)c1=O (racemic) [Compound I-64], the IC50 is reported as < 100 nM.
In the case of Cc1cccn(CC2(c3cccc(-c4ccncc4)c3)NC(=O)NC2=O)c1=O (racemic) [Compound I-95], the IC50 is reported as < 100 nM.
C=C(C)c1ccc(C2(Cn3cccc(C)c3=O)NC(=O)NC2=O)cc1 (racemic) [Compound I-108] was tested, and the IC50 was < 100 nM.
For Cc1cc(C2(Cn3cccc(C)c3=O)NC(=O)NC2=O)ccc1OC1C=CCCC1 (centres unmarked) [Compound I-38], the IC50 was < 100 nM.
With O=C1NC(=O)C(Cn2cccc(Cl)c2=O)(c2ccccc2)N1 (racemic) [Compound I-50, 5-[(3-chloro-2-oxopyridin-1(2H)-yl)methyl]-5-phenylimidazolidine-2,4-dione] the IC50 was < 100 nM.
With Cc1cccn(CC2(c3cc(F)c(F)cc3F)NC(=O)NC2=O)c1=O (racemic) [Compound I-29, 5-[(3-methyl-2-oxopyridin-1(2H)-yl)methyl]-5-(2,4,5-trifluorophenyl)imidazolidine-2,4-dione] the IC50 was < 100 nM.
For Cc1cccn(CC2(c3ccc(Oc4ccccc4F)c(F)c3)NC(=O)NC2=O)c1=O (racemic) [Compound I-104], the IC50 was < 100 nM.
Cc1ccc(Oc2ccc(C3(Cn4cccc(C)c4=O)NC(=O)NC3=O)cc2)cc1 (racemic) [Compound I-34, 5-[(3-methyl-2-oxopyridin-1(2H)-yl)methyl]-5-[4-(p-tolyloxy)phenyl]imidazolidine-2,4-dione] was tested, and the IC50 was < 100 nM.
N#Cc1ccc(C2(Cn3cccc(Cl)c3=O)NC(=O)NC2=O)cc1 (racemic) [Compound I-138] was tested, and the IC50 was < 100 nM.
In the case of Cc1cccn(CC2(c3ccc(Oc4ccc(Cl)cc4)cc3)NC(=O)NC2=O)c1=O (racemic) [Compound I-82], the IC50 is reported as < 100 nM.
With Cc1cccn(CC2(c3ccc(C4CCCCC4)cc3)NC(=O)NC2=O)c1=O (racemic) [Compound I-66] the IC50 was < 100 nM.
In the case of Cc1cccn(CC2(c3ccc(-c4ccncc4)cc3)NC(=O)NC2=O)c1=O (racemic) [Compound I-31, 5-[(3-methyl-2-oxopyridin-1(2H)-yl)methyl]-5-[4-(pyridin-4-yl)phenyl]imidazolidine-2,4-dione], the IC50 is reported as < 100 nM.
In the case of Cc1cccc(Oc2ccc(C3(Cn4cccc(C)c4=O)NC(=O)NC3=O)cc2)c1 (racemic) [Compound I-80], the IC50 is reported as < 100 nM.
For Cc1cccn(CC2(c3ccc(Cc4ccc(Cl)cc4)cc3)NC(=O)NC2=O)c1=O (racemic) [Compound I-130], the IC50 was < 100 nM.
With CCOc1ccc(C2(Cn3cccc(C)c3=O)NC(=O)NC2=O)cc1 (racemic) [Compound I-119] the IC50 was < 100 nM.
For Cc1cccn(CC2(c3ccccc3OCc3ccccc3)NC(=O)NC2=O)c1=O (racemic) [Compound I-68], the IC50 was ≥ 100 nM.
For COc1ccc(C2(Cn3cccc(Cl)c3=O)NC(=O)NC2=O)cc1 (racemic) [Compound I-137], the IC50 was < 100 nM.
For Cc1cccn(CC2(c3cccc(-c4ccc(F)cn4)c3)NC(=O)NC2=O)c1=O (racemic) [Compound I-93], the IC50 was < 100 nM.
COc1cc(F)ccc1C1(Cn2cccc(C)c2=O)NC(=O)NC1=O (racemic) [Compound I-21, 5-(4-fluoro-2-methoxyphenyl)-5-[(3-methyl-2-oxopyridin-1(2H)-yl)methyl]imidazolidine-2,4-dione] was tested, and the IC50 was < 100 nM.
With Cc1cccn(CC2(c3ccc(CCc4ccccn4)cc3)NC(=O)NC2=O)c1=O (racemic) [Compound I-115] the IC50 was < 100 nM.
COc1ccncc1-c1ccc(C2(Cn3cccc(C)c3=O)NC(=O)NC2=O)cc1 (racemic) [Compound I-91] was tested, and the IC50 was < 100 nM.
For COc1ccc(C2(Cn3ccccc3=O)NC(=O)NC2=O)cc1 (racemic) [Compound I-47, 5-(4-methoxyphenyl)-5-[(2-oxopyridin-1(2H)-yl)methyl]imidazolidine-2,4-dione], the IC50 was < 100 nM.
For O=C1NC(=O)C(Cn2ccccc2=O)(c2ccccc2)N1 (racemic) [Compound I-46, 5-[(2-oxopyridin-1(2H)-yl)methyl]-5-phenylimidazolidine-2,4-dione], the IC50 was < 100 nM.
O=C1NC(=O)C(Cn2cccc(F)c2=O)(c2ccccc2)N1 (racemic) [Compound I-132] was tested, and the IC50 was < 100 nM.
